Experimental data from patent US9023795B2, “Angiogenesis-inhibiting peptide and application thereof” (Shanghai First People's Hospital, priority 2010, dated 2015).

What was measured:
[1] = test system: pathological angiogenesis in the mouse cornea; experiment: Corneal stroma micropocket model, VEGF-induced pathological angiogenesis in the mouse cornea; assay type: in vivo, C57BL/6 mice; conditions: 5 days after operation, compared with VEGF group
Description: Model of the corneal stroma micropocket was used and the methods were as follows:
Male C57BL/6 mice (aged 4-5 weeks) were intraperitoneally injected with 2% pentobarbital (about 0.1 ml/PCS) for anesthesia. 4% hydrochloric oxybuprocaine ophthalmic solution was locally administrated. Under the stereo microscope, OT syringe needle and 2 ml syringe needle was used to perform a blunt dissection between the layers of corneal stroma at 0.8-1 mm from corneoscleral limbus. A pouch of about 0.6×0.8 mm was formed. Slow-release tablets (mixture of 1:1 (v/v) of 12% poly Hydroxyethyl methacrylate (polyHEMA): sucralfate) were planted respectively into the micropocket, including negative control group (blank tablet), positive control group (VEGF group: 320 ng/μl, 160 ng/tablet), and treatment group (VEGF+ZY1 small peptides of 1 μg/tablet low concentration, 5 μg/tablet moderate concentration, or 10 μg/tablet high concentration). 5 days after operation, the length of the longest new vessel (VL is the length of the longest new blood vessel grown from limbus to the cornea), and the clock hours of corneal neovascularization (CN represents the accumulative clock hours of corneal neovascularization) were observed. Neovascularization area were calculated as followed: Area (mm^2)=0.5*3.14*VL (mm)*CN*0.4 (mm). […] was used for statistical analysis.

[2] = test system: pathological angiogenesis in the mouse retina; experiment: Retinal angiogenesis in hypoxia-induced mice; assay type: in vivo, C57BL/6 mice; conditions: intravitreal, eyeballs removed 5 days later, P<0.01
Description: Model of retinal angiogenesis in hypoxia-induced mice was used and the methods were as follows:
Seven days after birth, C57BL/6 mice were placed together with their breast feeding mother into an environment having a 75%±2% oxygen concentration. The mice were taken out 5 days later, and were injected intravitreally with […] ZY1 small peptides of low concentration (500 ng/μl), moderate concentration (1 μg/μl), high concentration (2 μg/μl) or control sample PBS. Mice were placed in an environment having normal air for further feeding, thereby forming the mice model of retinopathy induced by hypoxia. The eyeballs were removed 5 days later, fixed in 4% paraformaldehyde, embedded in paraffin, cut into sections, and stained with HE. The amount of the nucleus of the vascular endothelial cells in retina was counted under the optical microscope (Magnification was 200 fold). SPSS11.0.1 was used for statistical analysis.

[3] = test system: Human Umbilical Vein Endothelial Cells (HUVECs); experiment: Proliferation of primary HUVECs, MTS method; assay type: cell-based; conditions: VEGF + ZY1, even at low concentration (1 μg/μl), 24 hours incubation
Description: The MTS method was used as follows:
Human Umbilical Vein Endothelial Cells (HUVECs) (purchased from ScienCell Co.) were inoculated onto a 96-well plate with an inoculation concentration of 4×10^4/ml. After cells had adhered to the wall, serum-free culture medium of ECM were added and the cells were cultivated at 37° C. for 24 hours. Then the serum-free culture medium ECM was added into each well in negative control group. VEGF (10 ng/ml) (purchased from Sigma Co.) in positive control group, VEGF (10 ng/well) ZY1 small peptide having different concentrations (1 μg/μl, 10 μg/μl, 25 μg/μl, 50 μg/μl) in treatment group were added as well. After 24 hours incubation, 20 μl MTS solution (purchased from Promega Corporation) was added in each well. After incubation at 37° C. for 4 hours, the absorbance at 490 nm for each well was measured by using Enzyme-linked Immunoassay Analysis (Bio-Rad Co.). The proliferation activity of cells was determined according to OD490. Finally, SPSS11.0.1 was used for statistical analysis.
Derived Polypeptides were prepared as follows, and the inhibition effect on proliferation of Human Umbilical Vein Endothelial Cells HUVECs was determined according to the methods in Example 6.

[4] = test system: Human Umbilical Vein Endothelial Cells (HUVECs); experiment: Migration of primary HUVECs, Wound Healing method; assay type: cell-based; conditions: VEGF (10 ng/ml) + ZY1 1, 10, 25, 50 μg/μl, 6 hours
Description: The Wound Healing method was used as follows:
Primary Human Umbilical Vein Endothelial Cells (HUVECs) (purchased from ScienCell Co.) were inoculated onto a 12-well plate with an inoculation concentration of 1×10^5/ml. After cells had adhered to the wall and grown to 80%-90% of confluence, serum-free culture medium of ECM were added before cultivation at 37° C. for 24 hours. A “+” scratch was carved with the tip of a 200 μl pipettor in each well and serum-free culture medium ECM were added in negative control group. VEGF (10 ng/ml) (purchased from Sigma Co.) in positive control group, and VEGF (10 ng/ml)+ZY1 small peptide having different concentrations (1 μg/μl, 10 μg/μl, 25 μg/μl, 50 μg/μl) in treatment group were added as well. The cultivation was continued. Photos were taken for the scratches of the cells in the 12-well plate at 0 hour and 6 hour, respectively. The average width of the scratches was calculated. The migration activity was determined according to the scratch width. Finally, SPSS11.0.1 was used for statistical analysis.

[5] = test system: Human Umbilical Vein Endothelial Cells (HUVECs); experiment: Chemotaxis of primary HUVECs, Transwell Chamber method; assay type: cell-based; conditions: ZY1 10, 25, 50 μg/μl in upper chamber, VEGF (50 ng/ml) in lower chamber, 24 hours
Description: The Transwell Chamber method was used as follows:
HUVECs (purchased from ScienCell Co.) were inoculated onto the upper chamber of Transwell chambers with an inoculation concentration of 6×10^5/ml. Serum-free culture medium of ECM or ZY1 small peptide having different concentrations (10 μg/μl, 25 μg/μl, 50 μg/μl) were added into individual upper chambers. VEGF (50 ng/ml) (purchased from Sigma Co.) was added/not added into the lower chamber as a chemotactic factor. After incubation at 37° C. for 24 hours, the cells on upper surface of Transwell Chamber membrane were wiped and the membrane was washed with PBS. Then the membrane was fixed in 4% paraformaldehyde solution and the lower surface of membrane was stained with hematoxylin, cut and then sections were prepared. Five fields on the chamber membrane under the optical microscope (Magnification was 400 fold) were randomly taken for photograph and the number of cells nucleus was counted. The chemotaxis was determined according to the number of cells nucleus on the lower surface of chamber membrane. Finally, SPSS11.0.1 was used for statistical analysis.

[6] = test system: Human Umbilical Vein Endothelial Cells (HUVECs); experiment: Lumen formation of primary HUVECs, Matrigel method; assay type: cell-based; conditions: ZY1 at different concentrations (1, 10, 25, 50 μg/μl), VEGF 50 ng/ml, 6 hours of treatment
Description: The Matrigel method was used as follows:
A 50 μl/well Matrigel (purchased from BD Co.) was added into a 96-well plate before incubation at 37° C. for 30 min. After solidified, the primary HUVECs were inoculated onto the surface of the Matrigel with an inoculation concentration of 8×10^6/ml. Serum-free culture medium of ECM in negative control group, VEGF (50 ng/ml) (purchased from Sigma Co.) in positive control group, and ZY1 small peptide having different concentrations (1 μg/μl, 10 μg/μl, 25 μg/μl, 50 μg/μl) in treatment group were added into the wells. The incubation was continued at 37° C. Photos were taken for the 3 randomized fields of cells in the plate under the microscope (Magnification was 200 fold.) after 6 hours of treatment and the number of formed lumina was counted. Finally, SPSS11.0.1 was used for statistical analysis.

“CVSLLRCTGCC GDENLHCVPV (CVSLLRCTGCCGDENLHCVPV; angiogenesis-inhibiting peptide ZY1)” was tested, and the “inhibition of corneal angiogenesis (neovascularization area)” value ([1]; high concentration (10 μg/tablet) + VEGF 160 ng/tablet) was “significantly inhibited”, the “inhibition of corneal angiogenesis (neovascularization area)” value ([1]; moderate concentration (5 μg/tablet) + VEGF 160 ng/tablet) was “significantly inhibited” and the “inhibition of pathological angiogenesis in mouse retina (amount of nucleus of vascular endothelial cells)” value ([2]; high concentration (2 μg/μl)) was “significantly inhibited”. For the same sequence, the “inhibition of pathological angiogenesis in mouse retina (amount of nucleus of vascular endothelial cells)” value ([2]; moderate concentration (1 μg/μl)) was “significantly inhibited”, the “inhibition of proliferation of HUVECs (OD490)” value [3] was “significantly inhibited” and the “inhibition of migration of primary HUVECs (scratch width)” value [4] was “significantly inhibited”. For the same sequence, the “inhibition of chemotaxis of HUVECs (number of cell nuclei on lower surface of chamber membrane)” value [5] was “significant inhibition effect” and the “inhibition of lumen formation of primary HUVECs (number of formed lumina)” value [6] was “significant inhibition effect”.
